A word on the IC50: it is the concentration that inhibits the measured activity by half. A low value points to greater potency in that assay.

Each structure is given as a SMILES string. Bounds are passed on as bounds.

In this test the target is T1, KCNT1 (KNa1.1, Slack) (Homo sapiens, UniProt Q5JUK3).
T1 construct: expressed in transfected cells; host or cells: HEK-TREX (tetracycline-inducible cell line)
T1 sequence (Q5JUK3 1-1230): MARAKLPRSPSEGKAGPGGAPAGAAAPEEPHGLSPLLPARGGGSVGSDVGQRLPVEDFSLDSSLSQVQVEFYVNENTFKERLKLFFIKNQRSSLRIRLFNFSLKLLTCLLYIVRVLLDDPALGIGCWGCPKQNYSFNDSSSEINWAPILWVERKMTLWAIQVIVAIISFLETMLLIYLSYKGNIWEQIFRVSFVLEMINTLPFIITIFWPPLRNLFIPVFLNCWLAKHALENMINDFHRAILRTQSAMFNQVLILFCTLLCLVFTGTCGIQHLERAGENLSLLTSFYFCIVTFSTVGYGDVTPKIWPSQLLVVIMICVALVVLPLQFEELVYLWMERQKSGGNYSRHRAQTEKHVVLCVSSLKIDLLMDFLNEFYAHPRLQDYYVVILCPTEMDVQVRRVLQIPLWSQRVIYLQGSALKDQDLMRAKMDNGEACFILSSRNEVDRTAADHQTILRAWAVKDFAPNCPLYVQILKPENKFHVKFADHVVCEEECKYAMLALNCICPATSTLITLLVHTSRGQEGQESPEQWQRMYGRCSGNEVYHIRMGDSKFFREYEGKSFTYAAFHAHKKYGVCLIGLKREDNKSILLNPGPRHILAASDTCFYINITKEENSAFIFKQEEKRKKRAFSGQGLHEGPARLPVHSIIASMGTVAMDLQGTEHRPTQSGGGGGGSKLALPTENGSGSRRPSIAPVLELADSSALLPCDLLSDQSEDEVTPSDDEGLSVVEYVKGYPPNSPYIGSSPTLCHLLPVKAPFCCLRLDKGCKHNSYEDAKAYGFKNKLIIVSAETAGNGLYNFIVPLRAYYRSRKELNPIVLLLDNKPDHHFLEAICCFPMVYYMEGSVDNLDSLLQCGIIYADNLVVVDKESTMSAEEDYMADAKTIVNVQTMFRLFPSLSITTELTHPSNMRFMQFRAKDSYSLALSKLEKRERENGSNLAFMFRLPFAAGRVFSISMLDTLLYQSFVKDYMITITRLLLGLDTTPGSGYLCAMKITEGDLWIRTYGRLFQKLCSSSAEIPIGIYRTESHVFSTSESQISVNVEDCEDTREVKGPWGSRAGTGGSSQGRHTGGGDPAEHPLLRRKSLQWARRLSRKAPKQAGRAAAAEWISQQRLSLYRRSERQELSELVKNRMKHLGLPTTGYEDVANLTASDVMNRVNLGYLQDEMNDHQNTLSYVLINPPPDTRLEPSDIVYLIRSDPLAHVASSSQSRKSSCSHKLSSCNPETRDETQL
Description: KCNT1-WT-Basal Patch Clamp Assay. Type of test: cell-based. The conditions noted are these: tetracycline inducible cell line (HEK-TREX); SyncroPatch 384PE automated patch clamp, perforated patch mode, room temperature, step from -80 mV to 0 mV. The method, boiled down:
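Tetracycline-inducible HEK-TREX cells expressing human KCNT1, recorded by automated perforated patch clamp (10 μM escin) at room temperature, with 4 mM external K+ at pH 7.4. Mean current taken during a 100 ms step from −80 mV to 0 mV, averaged over 3 sweeps. IC50 from Hill fit of % inhibition; otherwise % inhibition at top concentration.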
(The patch-clamp technique gives a direct electrical read-out from membranes.)

Turning to `CC1CCC(C(=O)N[C@@H](C)c2nc(-c3ccnc(C(F)(F)F)c3)no2)CC1` (stereo partly drawn) [Compound I-19, (S)-4-methyl-N-(1-(3-(2-(trifluoromethyl)pyridin-4-yl)-1,2,4-oxadiazol-5-yl)ethyl)cyclohexane-1-carboxamide], the IC50 is at most 1000 nM.

`CC1CC(C(=O)N[C@@H](C)c2nc(-c3ccnc(C(F)(F)F)c3)no2)C1` (mixture of isomers) [Compound I-74, 3-methyl-N-[(1S)-1-[3-[2-(trifluoromethyl)-4-pyridyl]-1,2,4-oxadiazol-5-yl]ethyl]cyclobutanecarboxamide] returned an IC50 of at most 1000 nM.

`C[C@H](NC(=O)C1CCCCN1C)c1nc(-c2ccnc(C(F)(F)F)c2)no1` (stereo partly drawn) [Compound I-66, 1-methyl-N—((S)-1-(3-(2-(trifluoromethyl)pyridin-4-yl)-1,2,4-oxadiazol-5-yl)ethyl)piperidine-2-carboxamide] returned a 50% inhibitory concentration (IC50) of at least 20000 nM.

Consider `C[C@H](NC(=O)C1CCC(C)(C)CC1)c1nc(-c2ccnc(C(F)(F)F)c2)no1` [Compound I-67, (S)-4,4-dimethyl-N-(1-(3-(2-(trifluoromethyl)pyridin-4-yl)-1,2,4-oxadiazol-5-yl)ethyl)cyclohexane-1-carboxamide], for which the IC50 is at most 1000 nM.

`C[C@H](NC(=O)c1c[nH]c(C(F)(F)F)n1)c1nc(-c2ccnc(C(F)(F)F)c2)no1` [Compound I-4, (S)-2-(trifluoromethyl)-N-(1-(3-(2-(trifluoromethyl)pyridin-4-yl)-1,2,4-oxadiazol-5-yl)ethyl)-1H-imidazole-4-carboxamide] had an IC50 of at least 20000 nM.

On to `C[C@H](NC(=O)C1CC2(CCC2)C1)c1nc(-c2ccnc(C(F)(F)F)c2)no1` [Compound I-76, N-[(1S)-1-[3-[2-(trifluoromethyl)-4-pyridyl]-1,2,4-oxadiazol-5-yl]ethyl]spiro[3.3]heptane-2-carboxamide], for which the half-maximal inhibitory concentration (IC50) was at most 1000 nM.

`CCOc1cc(-c2noc([C@H](C)NC(=O)C3CCCC3)n2)ccn1` [Compound I-45, (S)—N-(1-(3-(2-ethoxypyridin-4-yl)-1,2,4-oxadiazol-5-yl)ethyl)cyclopentanecar-boxamide]: the 50% inhibitory concentration (IC50) is at most 1000 nM.

`C[C@H](NC(=O)c1ccc(Cl)cc1)c1nc(-c2ccnc(C3CC3)c2)no1` [Compound I-62, (S)-4-chloro-N-(1-(3-(2-cyclopropylpyridin-4-yl)-1,2,4-oxadiazol-5-yl)ethyl)benzamide] came in with an IC50 of at most 1000 nM.

Regarding `C[C@H](NC(=O)c1ccc(S(=O)(=O)C2CC2)s1)c1nc(-c2ccnc(C3CC3)c2)no1` [Compound I-97, (S)—N-(1-(3-(2-cyclopropylpyridin-4-yl)-1,2,4-oxadiazol-5-yl)ethyl)-5-(cyclopropylsulfonyl)thiophene-2-carboxamide], the IC50 was at most 1000 nM.

As to `C[C@H](NC(=O)[C@H]1CC[C@@H](C)CC1)c1nc(-c2ccnc(C(F)(F)F)c2)no1` [Compound I-36, cis-4-methyl-N—((S)-1-(3-(2-(trifluoromethyl)pyridin-4-yl)-1,2,4-oxadiazol-5-yl)ethyl)cyclohexane-1-carboxamide], the IC50 was at most 1000 nM.

On to `C[C@H](NC(=O)C1(C)CC1)c1nc(-c2ccnc(C(F)(F)F)c2)no1` [Compound I-33, (S)-1-methyl-N-(1-(3-(2-(trifluoromethyl)pyridin-4-yl)-1,2,4-oxadiazol-5-yl)ethyl)cyclopropane-1-carboxamide], for which the half-maximal inhibitory concentration (IC50) lay in the range of 1000 to 20000 nM.

As for `CC(C)Oc1cc(-c2noc([C@H](C)NC(=O)N(C)C(C)(C)C)n2)ccn1` [II-5], the IC50 was at most 1000 nM.

As to `CC(C)Oc1cc(-c2noc([C@H](C)NC(=O)c3ccccc3)n2)ccn1` [Compound I-43, (S)—N-(1-(3-(2-isopropoxypyridin-4-yl)-1,2,4-oxadiazol-5-yl)ethyl)benzamide], the half-inhibitory concentration (IC50) was at most 1000 nM.

The compound `C[C@H](NC(=O)c1ccc(Br)s1)c1nc(-c2ccnc(C(F)(F)F)c2)no1` [Compound I-18, (S)-5-bromo-N-(1-(3-(2-(trifluoromethyl)pyridin-4-yl)-1,2,4-oxadiazol-5-yl)ethyl)thiophene-2-carboxamide] gave an IC50 of at most 1000 nM.

In turn, `C[C@H](NC(=O)N1CCOc2ccccc21)c1nc(-c2ccnc(C3CC3)c2)no1` [II-6] yielded an IC50 of at most 1000 nM.

In the case of `C[C@H](NC(=O)C12CCC(CC1)CC2)c1nc(-c2ccnc(C(F)(F)F)c2)no1` [Compound I-59, (S)—N-(1-(3-(2-(trifluoromethyl)pyridin-4-yl)-1,2,4-oxadiazol-5-yl)ethyl)bicyclo[2.2.2]octane-1-carboxamide], the IC50 is at most 1000 nM.

Regarding `C[C@H](NC(=O)c1cccnn1)c1nc(-c2ccnc(C(F)(F)F)c2)no1` [Compound I-24, (S)—N-(1-(3-(2-(trifluoromethyl)pyridin-4-yl)-1,2,4-oxadiazol-5-yl)ethyl)pyridazine-3-carboxamide], the IC50 is at least 20000 nM.

As to `CC(=O)N1CCCCC1C(=O)N[C@@H](C)c1nc(-c2ccnc(C(F)(F)F)c2)no1` (mixture of isomers) [Compound I-86, 1-acetyl-N-[(1S)-1-[3-[2-(trifluoromethyl)-4-pyridyl]-1,2,4-oxadiazol-5-yl]ethyl]piperidine-2-carboxamide], the IC50 was at least 20000 nM.

For `C[C@H](NC(=O)C(C)(C)C)c1nc(-c2ccnc(C3CC3)c2)no1` [III-5], the IC50 is at most 1000 nM.

Compound `C[C@H](NC(=O)c1ccno1)c1nc(-c2ccnc(C(F)(F)F)c2)no1` [Compound I-23, (S)—N-(1-(3-(2-(trifluoromethyl)pyridin-4-yl)-1,2,4-oxadiazol-5-yl)ethyl)isoxazole-5-carboxamide] returned an IC50 of at least 20000 nM.

Turning to `C[C@H](NC(=O)C1CCC(O)CC1)c1nc(-c2ccnc(C(F)(F)F)c2)no1` (single isomer, unassigned) [Compound I-78], the IC50 was at least 20000 nM.

In turn, `C[C@H](NC(=O)C1CC(F)(F)C1)c1nc(-c2ccnc(C(F)(F)F)c2)no1` [Compound I-2, (S)-3,3-difluoro-N-(1-(3-(2-(trifluoromethyl)pyridin-4-yl)-1,2,4-oxadiazol-5-yl)ethyl)cyclobutane-1-carboxamide] came in with an IC50 of 1000 to 20000 nM.

Compound `C[C@H](NC(=O)c1cccc(C(F)(F)F)c1)c1nc(-c2ccnc(C3CC3)c2)no1` [Compound I-95, (S)—N-(1-(3-(2-cyclopropylpyridin-4-yl)-1,2,4-oxadiazol-5-yl)ethyl)-3-(trifluoromethyl)benzamide] came in with an IC50 of at most 1000 nM.

For the compound `CCOc1cc(-c2noc([C@H](C)NC(=O)c3ccccc3)n2)ccn1` [Compound I-44, (S)—N-(1-(3-(2-ethoxypyridin-4-yl)-1,2,4-oxadiazol-5-yl)ethyl)benzamide], the 50% inhibitory concentration (IC50) is at most 1000 nM.

In turn, `COC1CCC(C(=O)N[C@@H](C)c2nc(-c3ccnc(C(F)(F)F)c3)no2)CC1` (stereo partly drawn) [Compound I-69, (S)-4-methoxy-N-(1-(3-(2-(trifluoromethyl)pyridin-4-yl)-1,2,4-oxadiazol-5-yl)ethyl)cyclohexane-1-carboxamide] had an IC50 of 1000 to 20000 nM.

With `C[C@H](NC(=O)c1cccc(C(N)=O)c1)c1nc(-c2ccnc(C3CC3)c2)no1` [Compound I-91, (S)—N-(1-(3-(2-cyclopropylpyridin-4-yl)-1,2,4-oxadiazol-5-yl)ethyl) isophthalamide], the IC50 was in the range of 1000 to 20000 nM.

The compound `C[C@H](NC(=O)C1CCCCC1)c1nc(-c2ccnc(C(F)(F)F)c2)no1` [Compound I-9] gave an IC50 of at most 1000 nM.

`C[C@H](NC(=O)[C@H]1CC[C@@H](C)CC1)c1nc(-c2ccnc(C3CC3)c2)no1` [Compound I-84, (1S,4R)—N—((S)-1-(3-(2-cyclopropylpyridin-4-yl)-1,2,4-oxadiazol-5-yl)ethyl)-4-methylcyclohexane-1-carboxamide] had a 50% inhibitory concentration (IC50) of at most 1000 nM.

As for `C[C@H](NC(=O)c1cccc(Cl)c1)c1nc(-c2ccnc(C3CC3)c2)no1` [Compound I-63, 3-chloro-N-[(1S)-1-[3-(2-cyclopropyl-4-pyridyl)-1,2,4-oxadiazol-5-yl]ethyl]benzamide], the concentration for half-maximal inhibition (IC50) was at most 1000 nM.

Source of the values: patent publication US12583849B2, “KCNT1 inhibitors and methods of use” (Praxis Precision Medicines, Inc., priority 2020, dated 2026).
